The values that follow come from ChEMBL document CHEMBL5331124, “Degradation of Hexokinase 2 Blocks Glycolysis and Induces GSDME-Dependent Pyroptosis to Amplify Immunogenic Cell Death for Breast Cancer Therapy” (J Med Chem, 2023).

Structures are written as SMILES. Active and inactive are the calls of the source. No cut-off for these calls is given here.

The subject of series [1] is 4T1. The series can be described thus: Antitumor activity against mouse 4T1 cells implanted in BALB/c mouse assessed as reduction in tumor growth at 50 mg/kg, ip measured after 23 days in presence of cisplatin. The format is functional, organism-based. The note with it: time 23.0 day.
Series [2] deals with 4T1. Description: Antitumor immunity against mouse 4T1 cells implanted in BALB/c mouse model assessed as increase in N-terminal GSDME expression in tumor. The format is functional, cell-based.
Series [3] concerns MDA-MB-231. The series can be described thus: Induction of pyroptosis in human MDA-MB-231 cells assessed as decrease in full length caspase-3 level at 20 uM incubated for 36 hrs by Western blot analysis. The format is functional, cell-based. In general terms: Immunoblotting shows a protein as a band on a membrane.
Series [4] deals with 4T1. The series can be described thus: Antitumor activity against mouse 4T1 cells implanted in BALB/c mouse model assessed as reduction tumor cell proliferation at 50 mg/kg, ip measured after 25 days by H and E staining based analysis. The format is functional, organism-based. The note with it: time 25.0 day.
For series [5], the target named is Protein cereblon/Hexokinase-2 (Mus musculus) (UniProt O08528+Q8C7D2). The series can be described thus: PROTAC activity at CRBN/HK2 in mouse 4T1 cells assessed as […] ternary complex formation at 10 uM incubated for 24 hrs. The format is cell-based.
Sequence of Protein cereblon/Hexokinase-2 (Mus musculus) (Q8C7D2 whole entry, looked up, one chain of several): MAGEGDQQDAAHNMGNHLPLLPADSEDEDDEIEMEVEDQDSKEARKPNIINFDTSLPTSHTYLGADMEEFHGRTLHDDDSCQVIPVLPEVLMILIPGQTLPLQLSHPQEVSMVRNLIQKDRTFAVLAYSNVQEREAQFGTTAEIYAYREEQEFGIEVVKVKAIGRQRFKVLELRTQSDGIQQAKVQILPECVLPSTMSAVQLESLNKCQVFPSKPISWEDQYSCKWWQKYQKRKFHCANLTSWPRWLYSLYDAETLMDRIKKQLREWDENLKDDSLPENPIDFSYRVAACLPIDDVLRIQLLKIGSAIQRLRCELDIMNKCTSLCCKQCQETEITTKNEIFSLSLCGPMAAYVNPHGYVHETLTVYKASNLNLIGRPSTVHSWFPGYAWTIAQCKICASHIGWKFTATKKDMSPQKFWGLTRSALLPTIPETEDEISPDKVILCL
In series [6] the test system is 4T1. The series can be described thus: Antiproliferative activity against mouse 4T1 cells expressing SiHK2 assessed as cell growth inhibition measured for 72 hrs by MTT assay. The format is functional, cell-based. Background: Tetrazolium assays rely on reduction of a dye to a coloured formazan, in cell work by metabolically active cells.
For series [7], the target named is T1, Hexokinase-2 (Homo sapiens) (UniProt P52789).
T1 sequence (whole entry): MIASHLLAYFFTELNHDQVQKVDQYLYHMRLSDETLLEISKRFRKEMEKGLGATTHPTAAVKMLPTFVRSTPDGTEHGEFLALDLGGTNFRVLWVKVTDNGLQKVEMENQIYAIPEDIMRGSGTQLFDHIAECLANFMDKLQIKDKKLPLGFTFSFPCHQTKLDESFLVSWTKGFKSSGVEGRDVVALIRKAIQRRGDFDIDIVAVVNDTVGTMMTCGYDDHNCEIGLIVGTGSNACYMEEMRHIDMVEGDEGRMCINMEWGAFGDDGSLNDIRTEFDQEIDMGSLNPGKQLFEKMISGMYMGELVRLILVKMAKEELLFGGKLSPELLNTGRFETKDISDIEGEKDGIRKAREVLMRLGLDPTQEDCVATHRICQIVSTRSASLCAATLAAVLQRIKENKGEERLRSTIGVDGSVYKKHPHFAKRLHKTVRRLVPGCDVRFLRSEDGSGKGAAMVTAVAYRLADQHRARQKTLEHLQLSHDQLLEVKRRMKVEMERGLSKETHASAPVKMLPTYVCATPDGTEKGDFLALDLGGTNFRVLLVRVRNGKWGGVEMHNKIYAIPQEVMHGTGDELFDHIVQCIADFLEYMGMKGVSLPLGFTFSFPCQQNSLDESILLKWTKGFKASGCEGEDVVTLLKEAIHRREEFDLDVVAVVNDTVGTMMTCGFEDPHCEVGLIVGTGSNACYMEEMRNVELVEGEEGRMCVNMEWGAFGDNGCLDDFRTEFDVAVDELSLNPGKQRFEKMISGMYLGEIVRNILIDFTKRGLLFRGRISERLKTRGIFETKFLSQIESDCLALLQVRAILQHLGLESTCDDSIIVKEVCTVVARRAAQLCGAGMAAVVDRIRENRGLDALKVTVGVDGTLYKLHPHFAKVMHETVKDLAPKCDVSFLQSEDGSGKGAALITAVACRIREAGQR
Description: Induction of HK2 degradation in human MDA-MB-231 cells assessed as increase in VDAC expression at 20 uM measured for 36 hrs by Western blot analysis. The format is cell-based.

Series [8] has as its system MDA-MB-231. Description: Antitumor activity against human MDA-MB-231 cells xenografted in BALB/c nude mouse assessed as reduction in tumor growth at 50 mg/kg, ip measured after 28 days. The format is functional, organism-based. The following applies: time 28.0 day. For orientation: In xenograft studies the graft and the host belong to different species.
For series [9], the system named is MDA-MB-231. Description: Antitumor immunity against human MDA-MB-231 cells xenografted in BALB/c nude mouse at 50 mg/kg, ip measured after 28 days. The format is functional, organism-based. The note with it: time 28.0 day.
Series [10] is described as follows: Toxicity in BALB/c mouse implanted with mouse 4T1 cells assessed as effect on hematocrit level at 50 mg/kg, ip measured after 25 days by routine blood test. The format is organism-based. The following applies: in vivo, 600 h, time 25 day.
A further series deals with PANC-1. The series can be described thus: Antiproliferative activity against human PANC-1 cells assessed as cell growth inhibition measured for 72 hrs by MTT assay. The format is functional, cell-based. The note with it: PANC-1, 72 h.
For series [11], the system named is 4T1. Description: Antitumor immunity against mouse 4T1 cells implanted in BALB/c mouse model assessed as accumulation of CRT at 20 uM measured for 36 hrs by ELISA analysis. The format is functional, cell-based.
Series [12] has as its target T2, Hexokinase-2 (Mus musculus) (UniProt O08528).
T2 sequence (whole entry): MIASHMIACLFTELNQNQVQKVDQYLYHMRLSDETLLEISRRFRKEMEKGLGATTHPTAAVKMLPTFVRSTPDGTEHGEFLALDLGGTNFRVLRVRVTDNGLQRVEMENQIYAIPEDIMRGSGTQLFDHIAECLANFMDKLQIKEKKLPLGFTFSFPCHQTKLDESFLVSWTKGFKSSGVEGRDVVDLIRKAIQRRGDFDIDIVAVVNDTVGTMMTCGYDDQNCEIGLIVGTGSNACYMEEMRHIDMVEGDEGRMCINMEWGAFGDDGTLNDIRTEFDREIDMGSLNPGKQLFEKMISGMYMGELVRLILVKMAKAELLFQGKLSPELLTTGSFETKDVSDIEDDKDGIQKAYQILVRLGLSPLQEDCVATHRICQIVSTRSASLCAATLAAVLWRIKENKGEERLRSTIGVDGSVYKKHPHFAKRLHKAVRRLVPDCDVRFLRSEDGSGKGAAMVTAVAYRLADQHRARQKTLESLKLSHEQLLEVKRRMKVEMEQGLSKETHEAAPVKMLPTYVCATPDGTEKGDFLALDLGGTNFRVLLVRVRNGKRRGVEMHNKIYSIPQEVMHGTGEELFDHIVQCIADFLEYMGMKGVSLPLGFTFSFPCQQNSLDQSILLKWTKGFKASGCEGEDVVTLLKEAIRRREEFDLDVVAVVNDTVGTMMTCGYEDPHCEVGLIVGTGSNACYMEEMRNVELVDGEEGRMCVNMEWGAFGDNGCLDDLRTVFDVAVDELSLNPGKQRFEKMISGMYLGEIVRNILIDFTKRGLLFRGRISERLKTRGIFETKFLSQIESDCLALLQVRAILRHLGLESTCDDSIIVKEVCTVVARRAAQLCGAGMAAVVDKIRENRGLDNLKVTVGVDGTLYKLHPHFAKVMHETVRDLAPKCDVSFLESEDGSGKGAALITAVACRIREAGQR
Description: Induction of HK2 degradation in mouse 4T1 cells upto 200 uM measured at 12 to 36 hrs. The format is cell-based. The following applies: time 12-36 hrs.

In series [13] the test system is 4T1. The series can be described thus: Induction of pyroptosis in mouse 4T1 cells assessed as […] in cleaved caspase-3 level at 20 uM incubated for 36 hrs. The format is functional, cell-based.
The target of series [14] is Protein cereblon/Hexokinase-2 (Homo sapiens) (UniProt P52789+Q96SW2). The series can be described thus: PROTAC activity at CRBN/HK2 in human MDA-MB-231 cells assessed as […] ternary complex formation at 10 uM incubated for 24 hrs in presence of MG132. The format is cell-based.
Sequence of Protein cereblon/Hexokinase-2 (Homo sapiens) (Q96SW2 whole entry, looked up, one chain of several): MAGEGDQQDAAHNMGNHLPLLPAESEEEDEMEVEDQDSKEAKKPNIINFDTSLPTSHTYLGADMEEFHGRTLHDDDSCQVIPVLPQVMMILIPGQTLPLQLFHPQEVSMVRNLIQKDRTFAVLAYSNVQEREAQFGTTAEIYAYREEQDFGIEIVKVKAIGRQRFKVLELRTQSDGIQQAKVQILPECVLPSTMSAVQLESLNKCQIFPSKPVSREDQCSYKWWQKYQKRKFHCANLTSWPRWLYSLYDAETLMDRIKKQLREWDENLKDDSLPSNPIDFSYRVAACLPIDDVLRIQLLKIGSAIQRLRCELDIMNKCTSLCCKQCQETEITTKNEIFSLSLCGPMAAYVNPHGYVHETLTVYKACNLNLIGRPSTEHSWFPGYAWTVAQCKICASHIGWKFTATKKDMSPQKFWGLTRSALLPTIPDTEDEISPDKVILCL
Series [15] concerns 4T1. The series can be described thus: Antiproliferative activity against mouse 4T1 cells assessed as cell growth inhibition measured for 72 hrs by MTT assay. The format is functional, cell-based. The note with it: 4T1, 72 h.

One may read the IC50 as the concentration that gives 50% inhibition. With `O=C1CCC(N2C(=O)c3cccc(NCCCCNC(=O)c4nn(Cc5ccc(Cl)cc5Cl)c5ccccc45)c3C2=O)C(=O)N1` (stereo unspecified), the result (in the series with 4T1 [1]; in the series on 4T1 [2]; in the series with MDA-MB-231 [3]; in the series on 4T1 [4]; in [5]; in series [7]) was Active. The result (with MDA-MB-231 [8]; in the series with 4T1 [11]; in [12]; in the series on 4T1 [13]) was Active. Besides, the outcome (in the series with 4T1 [6]; in the series on MDA-MB-231 [9]; in series [14]) was inactive. In addition, the Activity entry in series [10] is “Non-Toxic”. Also, the IC50 in the series on PANC-1 stood at 31.5 µM; in the series on 4T1 [15], 5.08 µM.
